These results are taken from paper PMC12542672, “Pleiotropic role of PAX cyclolipopeptides in the Xenorhabdus bacterium mutualistically associated with entomopathogenic nematodes” (Applied and Environmental Microbiology, 2025).

The subject of assay [1] is X. nematophila WT. The class given is cell-based, Xenorhabdus nematophila F1. The protocol: (§1) Bacteria were routinely grown in Lysogeny Broth (Sigma-Aldrich) medium at 28°C (Xenorhabdus, S. maltophilia, P. protegens, Ochrobactrum sp., Achromobacter sp., A. faecalis, Pseudochrobactrum sp., Brevundimonas sp., E. mundtii, and D. rugosa) or 37°C (Escherichia coli and M. luteus). When required, antibiotics were used at the following final concentrations: gentamicin (Sigma-Aldrich), 20 µg mL^−1 and chloramphenicol (Sigma-Aldrich), 20 µg mL^−1 for E. coli strains and 15 µg mL^−1 for X. nematophila (or 8 µg mL^−1 for allelic exchange).
(§2) MICs were determined in accordance with CLSI guidelines ([73]) with the following modifications: 5 mL of MHB broth (Bio-Rad) was inoculated with an overnight culture in LB broth and grown to a 0.6 < OD600 < 0.9. The inoculum for the microplate was prepared as described in the CLSI guide, with dilution in MHB to approximately 10^4 CFU mL^−1. Ninety-six-well low-binding plates were incubated for 48 h at 28°C with slow shaking. The peptides used in the analyses were supplied by the following providers: cecropin A (Sigma-Aldrich), cecropin B1 (NeoMPS S.A.) ([74]), cecropin C (Proteogenix), cecropin P1 (Sigma-Aldrich), drosocin (Eurogentec), colistin (Sigma-Aldrich), polymyxin B (Sigma-Aldrich), and NOSO 95C (odilorhabdin, Nosopharm S.A.). Synthetic PAX1′, PAX2′, and PAX7 were provided by the SynBio3 platform (IBMM, Montpellier, France), and their structure is shown in Fig. S1.

Assay [2] concerns X. nematophila ∆ngrA. In words: MIC assay of antimicrobial peptides on X. nematophila ∆ngrA. The class given is cell-based, Xenorhabdus nematophila F1. As to conditions: CLSI with modifications, MHB broth, approx. 10^4 CFU mL^−1, 96-well low-binding plates, 48 h at 28°C, slow shaking. As for the experimental part:
as §1, §2

For assay [3], the system named is X. nematophila ∆paxA. The assay is classed as cell-based, Xenorhabdus nematophila F1. To be noted: CLSI with modifications, MHB broth, approx. 10^4 CFU mL^−1, 96-well low-binding plates, 48 h at 28°C, slow shaking. The protocol: as §1
The ΔpaxA mutant was constructed using the same experimental strategy as for the construction of the ΔngrA mutant from the WT strain X. nematophila F1 ([37]). The upstream and downstream regions of the paxA gene were amplified by PCR with the L-PCR1-paxA-SalI and R-PCR1-paxA-BamHI primers for the upstream region (621 bp) and the L-PCR2-paxA-BamHI and R-PCR2-paxA-SpeI primers for the downstream region (601 bp). The two fragments obtained were inserted, together with the 3.8 kb BamHI fragment ΩCam cassette from pHP45-ΩCm, conferring resistance to chloramphenicol, into pJQ200SK digested with SalI and SpeI for insertion of the ΩCam cassette between the two PCR fragments. The resulting plasmid, pJQ-paxA::ΩCm, was used to transform E. coli WM3064 and was introduced into X. nematophila F1 by mating. Allelic exchange was performed as previously described ([68]). ΩCam insertion was confirmed by PCR analysis using primers L-paxTA and R-verif-pax. The absence of PAX peptide products was assessed by mass spectrometry analysis, as described below. The clone obtained was called ΔpaxA.
as §2

Assay [4] concerns Pseudomonas protegens PPSC10. The assay is classed as cell-based. To be noted: 48 h. The protocol:
as §1, §2

The subject of assay [5] is Micrococcus luteus CIP103430. The class given is cell-based. To be noted: CIP103430, 48 h. The protocol: as §1, §2
The subject of assay [6] is Diutina rugosa GC. The class given is cell-based. As to conditions: 48 h. As for the experimental part: as §1, §2
The subject of assay [7] is Enterococcus mundtii SP. The class given is cell-based. To be noted: 48 h. The protocol: as §1, §2
Assay [8] has as its system Pseudochrobactrum sp. AL3. The class given is cell-based. As to conditions: 48 h. As for the experimental part:
as §1, §2

The test system of assay [9] is Stenotrophomonas maltophilia ALL5. The class given is cell-based. As to conditions: 48 h. As for the experimental part: as §1, §2
In assay [10] the test system is Alcaligenes faecalis SC. The assay is classed as cell-based. As to conditions: 48 h. As for the experimental part:
as §1, §2

The test system of assay [11] is Ochrobactrum sp. ALL4. The assay is classed as cell-based. As to conditions: 48 h. As for the experimental part: as §1, §2
The subject of assay [12] is Brevundimonas sp. ALL3. The class given is cell-based. As to conditions: 48 h. As for the experimental part:
as §1, §2

The test system of assay [13] is Achromobacter sp. D7.1. The assay is classed as cell-based. To be noted: 48 h. The protocol:
as §1, §2

The mark [14] stands for this setting: X. nematophila WT, CLSI with modifications, MHB broth, approx. 10^4 CFU mL^−1, 96-well low-binding plates, 48 h at 28°C, slow shaking.

≈ marks a conversion by molar mass, not a printed value. Where two headings read alike, the source gives them in different places. Where a SMILES comes first, the peptide text is derived from it. Bridges are numbered along the chain shown (N, C = ends). Where no end group is shown, it is not given here. [ ]: non-standard residue; d: D form. The star is where a group is joined. Hexadecanoyl(3R-OH) = CCCCCCCCCCCCC[C@@H](O)CC(=O)*; Tetradecanoyl(3R-OH) = CCCCCCCCCCC[C@@H](O)CC(=O)*; X1 = CC[C@H](C)CCCCC(=O)*; Dab = NCC[C@H](N)C(=O)O

As for `CC[C@H](C)CCCCC(=O)N[C@@H](CCN)C(=O)N[C@H](C(=O)N[C@@H](CCN)C(=O)N[C@H]1CCNC(=O)[C@H]([C@@H](C)O)NC(=O)[C@H](CCN)NC(=O)[C@H](CCN)NC(=O)[C@H](CC(C)C)NC(=O)[C@@H](CC(C)C)NC(=O)[C@H](CCN)NC1=O)[C@@H](C)O` [Colistin, colistin] (X1-[Dab]T[Dab][Dab][Dab][dL]L[Dab][Dab]T; lactam 4-C (inferred); N-terminus assumed), the Minimum inhibitory concentration came to 3.9 µg/mL (≈ 3.33 µM) in assay [1] (setting [14]), 3.9 µg/mL (≈ 3.33 µM) in assay [2] and 1.95 µg/mL (≈ 1.67 µM) in assay [3].
`CC[C@H](C)CCCCC(=O)N[C@@H](CCN)C(=O)N[C@H](C(=O)N[C@@H](CCN)C(=O)N[C@H]1CCNC(=O)[C@H]([C@@H](C)O)NC(=O)[C@H](CCN)NC(=O)[C@H](CCN)NC(=O)[C@H](CC(C)C)NC(=O)[C@@H](Cc2ccccc2)NC(=O)[C@H](CCN)NC1=O)[C@@H](C)O` [Polymyxin B, polymyxin B] (X1-[Dab]T[Dab][Dab][Dab][dF]L[Dab][Dab]T; lactam 4-C (inferred); N-terminus assumed): the Minimum inhibitory concentration in assay [1] (setting [14]), in assay [2] and in assay [3] was 0.245 µg/mL (≈ 0.204 µM) in each case.
For the compound `CCCCCCCCCCC[C@@H](O)CC(=O)NCC(=O)N[C@@H](CCCCN)C(=O)N[C@@H]1CCCCNC(=O)[C@H](CCCCN)NC(=O)[C@@H](CCCCN)NC(=O)[C@@H](CCCCN)NC(=O)[C@H](CCCCN)NC1=O` [Synthetic PAX1′] ({Tetradecanoyl(3R-OH)}-GK[dK]K[dK][dK]K; lactam 3-C (inferred)), the Minimum inhibitory concentration in [1] (48 h) was >1,500 µg mL^−1; in assay [4] it was > 250 µg/mL; in [5], 3.9 µg/mL (≈ 3.71 µM); in assay [6], 25 µg/mL (≈ 23.8 µM); in assay [7], 125 µg/mL (≈ 119 µM); in assay [8], > 250 µg/mL. In addition, the Minimum inhibitory concentration in assay [9] is > 250 µg/mL; in [10], > 250 µg/mL; in [11], > 250 µg/mL; in [12], 31.25 µg/mL (≈ 29.7 µM); in [13] it was > 250 µg/mL.
Take cecropin B1: the Minimum inhibitory concentration in [1] (setting [14]), in [2] and in assay [3] was 6.25 µg/mL throughout.
Consider cecropin C, for which the Minimum inhibitory concentration is 12.5 µg/mL in assay [1] (setting [14]), 25 µg/mL in assay [2] and 12.5 µg/mL in [3].
Take `CCCCCCCCCCC[C@@H](O)CC(=O)NCC(=O)N[C@@H](CCCNC(=N)N)C(=O)N[C@@H]1CCCCNC(=O)[C@H](CCCCN)NC(=O)[C@@H](CCCCN)NC(=O)[C@@H](CCCCN)NC(=O)[C@H](CCCCN)NC1=O` [Synthetic PAX2′] ({Tetradecanoyl(3R-OH)}-GR[dK]K[dK][dK]K; lactam 3-C (inferred)): the Minimum inhibitory concentration in assay [1] (48 h) is 187.5 µg/mL (≈ 174 µM); in assay [2], 375 µg/mL (≈ 347 µM); in assay [4], 125 µg/mL (≈ 116 µM); in assay [5], 1.95 µg/mL (≈ 1.8 µM); in [6] it was 62.5 µg/mL (≈ 57.8 µM); in assay [7] it was 31.25 µg/mL (≈ 28.9 µM). Moreover, the Minimum inhibitory concentration in assay [8] was 125 µg/mL (≈ 116 µM); in [9] it was 125 µg/mL (≈ 116 µM); in assay [10] it was 125 µg/mL (≈ 116 µM); in assay [11] it was 62.5 µg/mL (≈ 57.8 µM); in assay [12] it was 62.5 µg/mL (≈ 57.8 µM); in [13], 62.5 µg/mL (≈ 57.8 µM). The Minimum inhibitory concentration in assay [3] came to 375 µg/mL (≈ 347 µM).
As for `CCCCCCCCCCCCC[C@@H](O)CC(=O)NCC(=O)N[C@@H](CCCCN)C(=O)N[C@@H]1CCCCNC(=O)[C@H](CCCCN)NC(=O)[C@@H](CCCCN)NC(=O)[C@@H](CCCCN)NC(=O)[C@H](CCCCN)NC1=O` [Synthetic PAX7] ({Hexadecanoyl(3R-OH)}-GK[dK]K[dK][dK]K; lactam 3-C (inferred)), the Minimum inhibitory concentration in assay [1] (setting [14]) worked out at 187.5 µg/mL (≈ 174 µM); in assay [2] it was 375 µg/mL (≈ 347 µM); in assay [4] it was 62.5 µg/mL (≈ 57.8 µM); in [5] it was 0.49 µg/mL (≈ 0.453 µM); in assay [6], 62.5 µg/mL (≈ 57.8 µM); in assay [7], 15.63 µg/mL (≈ 14.5 µM). Moreover, the Minimum inhibitory concentration in assay [8] stood at 62.5 µg/mL (≈ 57.8 µM); in assay [9], 125 µg/mL (≈ 116 µM); in assay [10] it was 125 µg/mL (≈ 116 µM); in [11], 62.5 µg/mL (≈ 57.8 µM); in [12] it was 31.25 µg/mL (≈ 28.9 µM); in [13], 62.5 µg/mL (≈ 57.8 µM).
For the compound “GKPRPYSPRPTSHPRPIRV [Drosocin, drosocin]”, the Minimum inhibitory concentration in [1] (48 h) was >50 µg/mL.
Turning to “SWLSKTAKKLENSAKKRISEGIAIAIQGGPR [Cecropin P1, cecropin P1]”, the Minimum inhibitory concentration in [1] (setting [14]) is >12.5 µg/mL; in [2], 12.5 µg/mL.
